{"source": "patent US4847303A", "about": "“Tert-butylphenyl compounds useful as anti-inflammatory agents” (The Procter & Gamble Company, priority 1987, dated 1989)"}
{"test_system": "Carrageenan Rat Paw Edema", "test": "Carrageenan Rat Paw Edema Test", "type": "in vivo, rat (male Sprague-Dawley)", "conditions": "100 mg/kg P.O.; carrageenan 1 h after dosing, paw volume 4 h after carrageenan; all values statistically significant from control at P ≤ 0.05", "experimental": "Carrageenan Rat Paw Edema Test\nMale Sprague-Dawley rats (Charles River Laboratories) are weighed and food fasted overnight. The animals are then divided into four to six groups of six animals each according to body weights (average about 145 g) so that each group has about the same average body weight (within 10 g).\nThe following morning animals are dosed with the test compound and then placed in individual cages. For oral dosing, the drug is suspended in 0.5% methyl cellulose with 2% Tween 80, and delivered via stomach tube in a 5 ml volume.\nPaw volumes (0 time) are determined on both hind paws with a mercury displacement device equipped with a transducer and digitizer. One hour after dosing the test compound, the animals are placed in a plastic restrainer and 50 ul of a 1% (w/w) carrageenan solution in 0.9% saline is injected into the ventral surface of the left rear paw. Four hours after the carrageenan injection, the paw volumes are again determined.\nThe results are expressed as percent inhibition of the mean paw volume of the test group relative to the control group. Statistical differences are determined by one way analysis of variance.", "units": {"Percent Inhibition at 100 mg/kg dosed P.O (mean paw volume of the test group relative to the control group)": "%"}}
{"compound": "C#CCCCC(=O)c1cc(C)c(O)c(C(C)(C)C)c1", "note": "[Example 1, 2-methyl-4-(5'-hexynoyl)-6-t-butylphenol]", "Percent Inhibition at 100 mg/kg dosed P.O (mean paw volume of the test group relative to the control group)": 75.4}
{"compound": "C#CCCCC(=O)c1cc(C(C)(C)C)c(O)c(C(C)(C)CO)c1", "note": "[Example 2, 2-(2-hydroxy-1,1-dimethyl-ethyl)-4-(5'-hexynoyl)-6-t-butylphenol]", "Percent Inhibition at 100 mg/kg dosed P.O (mean paw volume of the test group relative to the control group)": 48.4}
{"compound": "C#CCCCC(=O)c1cc(CC=C)c(O)c(C(C)(C)C)c1", "note": "[Example 3, 1-Allyl-4-(5'-hexynoyl)-6-t-butylphenol]", "Percent Inhibition at 100 mg/kg dosed P.O (mean paw volume of the test group relative to the control group)": 65.8}
{"compound": "C#CCCCC(=O)c1cc(CCC)c(O)c(C(C)(C)C)c1", "note": "[Example 4, 2-n-propyl-4-(5'-hexynoyl)-6-t-butylphenol]", "Percent Inhibition at 100 mg/kg dosed P.O (mean paw volume of the test group relative to the control group)": 53.2}
{"compound": "C#CCCCC(=O)c1cc(C(C)C=C)c(O)c(C(C)(C)C)c1", "note": "(stereo not drawn) [Example 5, 2-s-(3-butenyl)-4-(5'-hexynoyl)-6-t-butylphenol]", "Percent Inhibition at 100 mg/kg dosed P.O (mean paw volume of the test group relative to the control group)": 90.8}
{"compound": "C#CCCCC(=O)c1cc(C(C)CC)c(O)c(C(C)(C)C)c1", "note": "(stereo not drawn) [Example 6, 2-s-butyl-4-(5'-hexynoyl)-6-t-butylphenol]", "Percent Inhibition at 100 mg/kg dosed P.O (mean paw volume of the test group relative to the control group)": 51.5}
